Source: patent publication US10392368B2, “Pyrazolo and triazolo bicyclic compounds as JAK kinase inhibitors” (THERAVANCE BIOPHARMA R&D IP, LLC, priority 2017, dated 2019)
Where two headings read alike, the source gives them in different places.

Assays:
[1] = biological target: T1, JAK1 (Homo sapiens, UniProt P23458); experiment: Biochemical JAK1 kinase assay (LanthaScreen); conditions: for Ki: read-out: JAK 1 (pKi) (converted)
T1 construct: GST; purchased Life Technologies
Method: (§1) A panel of four LanthaScreen JAK biochemical assays (JAK1, 2, 3 and Tyk2) were carried in a common kinase reaction buffer (50 mM HEPES, pH 7.5, 0.01% Brij-35, 10 mM MgCl2, and 1 mM EGTA). Recombinant GST-tagged JAK enzymes and a GFP-tagged STAT1 peptide substrate were obtained from Life Technologies.
(§2) Serially or discretely diluted compounds were pre-incubated with each of the four JAK enzymes and the substrate in white 384-well microplates (Corning) at ambient temperature for 1 h. ATP was subsequently added to initiate the kinase reactions in 10 μL total volume, with 1% DMSO. […] Kinase reactions were allowed to proceed for 1 hour at ambient temperature before a 10 μL preparation of EDTA (10 mM final concentration) and Tb-anti-pSTAT1 (pTyr701) antibody (Life Technologies, 2 nM final concentration) in TR-FRET dilution buffer (Life Technologies) was added. The plates were allowed to incubate at ambient temperature for 1 h before being read on the EnVision reader (Perkin Elmer). Emission ratio signals (520 nm/495 nm) were recorded and utilized to calculate the percent inhibition values based on DMSO and background controls.
(§3) For dose-response analysis, percent inhibition data were plotted vs. compound concentrations, and IC50 values were determined from a 4-parameter robust fit model with the Prism software (GraphPad Software). Results were expressed as pIC50 (negative logarithm of IC50) and subsequently converted to pKi (negative logarithm of dissociation constant, Ki) using the Cheng-Prusoff equation.

[2] = tested on: IL-2 stimulated pSTAT5 in Tall-1 T cells; experiment: Cellular JAK3 potency assay: inhibition of IL-2 stimulated pSTAT5 in Tall-1 T cells; format: cell-based, human; conditions: for IC50: Homo sapiens, read-out: Tall-1 (pIC50) (converted)
Method: The potency of test compounds for inhibition of interleukin-2 (IL-2) stimulated STAT5 phosphorylation was measured in the Tall-1 human T cell line (DSMZ) using AlphaLisa. Because IL-2 signals through JAK3, this assay provides a measure of JAK3 cellular potency.
Compounds were serially diluted in DMSO and dispensed acoustically to empty wells. Assay media (phenol red-free DMEM (Life Technologies) supplemented with 10% FBS (ATCC)) was dispensed (4 μL/well) and plates shaken at 900 rpm for 10 mins. Cells were seeded at 45,000 cells/well in assay media (4 μL/well), and incubated at 37° C., 5% CO2 for 1 hour, followed by the addition of IL-2 (R&D Systems; final concentration 300 ng/ml) in pre-warmed assay media (4 μL) for 30 minutes. After cytokine stimulation, cells were lysed with 6 ul of 3× AlphaLisa Lysis Buffer (PerkinElmer) containing 1× PhosStop and Complete tablets (Roche). The lysate was shaken at 900 rpm for 10 minutes at room temperature (RT). Phosphorylated STAT5 was measured via the pSTAT5 AlphaLisa kit (PerkinElmer). Freshly prepared acceptor bead mixture was dispensed onto lysate (5 μL) under green filtered <100 lux light. Plates were shaken at 900 rpm for 2 mins, briefly spun down, and incubated for 2 hrs at RT in the dark. Donor beads were dispensed (5 μL) under green filtered <100 lux light. Plates were shaken at 900 rpm for 2 minutes, briefly spun down, and incubated overnight at RT in the dark.
To determine the inhibitory potency of test compounds in response to IL-2, the average emission intensity of beads bound to pSTAT5 was measured in a human T cell line. IC50 values were determined from analysis of the inhibition curves of signal intensity versus compound concentration. Data are expressed as pIC50 (negative decadic logarithm IC50) values (mean±standard deviation).

[3] = biological target: T2, JAK3 (Homo sapiens, UniProt P52333); experiment: Biochemical JAK3 kinase assay (LanthaScreen); design: GST; purchased Life Technologies; conditions: for Ki: read-out: JAK 3 (pKi) (converted)
T2 sequence (P52333 1-1124): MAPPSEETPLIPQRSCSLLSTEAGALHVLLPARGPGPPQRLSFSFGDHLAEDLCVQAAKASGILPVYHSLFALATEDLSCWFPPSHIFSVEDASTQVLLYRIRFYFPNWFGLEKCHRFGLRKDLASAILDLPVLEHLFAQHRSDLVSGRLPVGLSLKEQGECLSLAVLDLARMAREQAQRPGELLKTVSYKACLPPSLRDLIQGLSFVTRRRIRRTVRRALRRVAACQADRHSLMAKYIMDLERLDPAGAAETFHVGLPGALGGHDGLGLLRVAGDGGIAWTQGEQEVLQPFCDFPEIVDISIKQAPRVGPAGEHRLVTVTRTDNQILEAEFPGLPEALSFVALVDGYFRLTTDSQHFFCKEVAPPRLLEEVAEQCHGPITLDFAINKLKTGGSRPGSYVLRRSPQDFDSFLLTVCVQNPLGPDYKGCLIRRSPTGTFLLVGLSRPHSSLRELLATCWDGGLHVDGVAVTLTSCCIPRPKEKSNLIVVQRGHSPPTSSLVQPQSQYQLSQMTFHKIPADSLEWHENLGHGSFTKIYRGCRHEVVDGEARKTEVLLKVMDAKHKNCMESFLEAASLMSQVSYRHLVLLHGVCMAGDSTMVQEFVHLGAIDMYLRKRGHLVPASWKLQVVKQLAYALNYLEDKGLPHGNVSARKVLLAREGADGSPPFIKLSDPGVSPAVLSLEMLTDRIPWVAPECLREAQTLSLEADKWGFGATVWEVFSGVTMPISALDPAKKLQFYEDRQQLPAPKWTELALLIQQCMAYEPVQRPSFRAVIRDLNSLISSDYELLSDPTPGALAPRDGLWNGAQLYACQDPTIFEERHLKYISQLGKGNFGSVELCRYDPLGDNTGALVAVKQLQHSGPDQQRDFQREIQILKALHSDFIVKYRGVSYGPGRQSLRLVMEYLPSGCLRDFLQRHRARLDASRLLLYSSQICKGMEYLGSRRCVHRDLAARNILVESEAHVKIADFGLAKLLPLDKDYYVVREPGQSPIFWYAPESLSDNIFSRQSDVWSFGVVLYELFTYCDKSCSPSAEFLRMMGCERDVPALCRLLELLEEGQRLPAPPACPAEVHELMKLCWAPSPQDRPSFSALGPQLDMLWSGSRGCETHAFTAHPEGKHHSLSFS
Method: as §1, §2, §3

[4] = IL-2 stimulated pSTAT5 in Tall-1 T cells
[5] = selectivity: difference of pKi JAK3 and pKi JAK1
[6] = TALL-1, IL-2 stimulated pSTAT5, Tall-1 T cells
[7] = selectivity JAK3 over JAK1, difference of pKi
[8] = TALL-1, IL-2 stimulated pSTAT5 in Tall-1 T cells
[9] = IL-2 stimulated pSTAT5, Tall-1 T cells

T1 sequence (P23458 whole entry): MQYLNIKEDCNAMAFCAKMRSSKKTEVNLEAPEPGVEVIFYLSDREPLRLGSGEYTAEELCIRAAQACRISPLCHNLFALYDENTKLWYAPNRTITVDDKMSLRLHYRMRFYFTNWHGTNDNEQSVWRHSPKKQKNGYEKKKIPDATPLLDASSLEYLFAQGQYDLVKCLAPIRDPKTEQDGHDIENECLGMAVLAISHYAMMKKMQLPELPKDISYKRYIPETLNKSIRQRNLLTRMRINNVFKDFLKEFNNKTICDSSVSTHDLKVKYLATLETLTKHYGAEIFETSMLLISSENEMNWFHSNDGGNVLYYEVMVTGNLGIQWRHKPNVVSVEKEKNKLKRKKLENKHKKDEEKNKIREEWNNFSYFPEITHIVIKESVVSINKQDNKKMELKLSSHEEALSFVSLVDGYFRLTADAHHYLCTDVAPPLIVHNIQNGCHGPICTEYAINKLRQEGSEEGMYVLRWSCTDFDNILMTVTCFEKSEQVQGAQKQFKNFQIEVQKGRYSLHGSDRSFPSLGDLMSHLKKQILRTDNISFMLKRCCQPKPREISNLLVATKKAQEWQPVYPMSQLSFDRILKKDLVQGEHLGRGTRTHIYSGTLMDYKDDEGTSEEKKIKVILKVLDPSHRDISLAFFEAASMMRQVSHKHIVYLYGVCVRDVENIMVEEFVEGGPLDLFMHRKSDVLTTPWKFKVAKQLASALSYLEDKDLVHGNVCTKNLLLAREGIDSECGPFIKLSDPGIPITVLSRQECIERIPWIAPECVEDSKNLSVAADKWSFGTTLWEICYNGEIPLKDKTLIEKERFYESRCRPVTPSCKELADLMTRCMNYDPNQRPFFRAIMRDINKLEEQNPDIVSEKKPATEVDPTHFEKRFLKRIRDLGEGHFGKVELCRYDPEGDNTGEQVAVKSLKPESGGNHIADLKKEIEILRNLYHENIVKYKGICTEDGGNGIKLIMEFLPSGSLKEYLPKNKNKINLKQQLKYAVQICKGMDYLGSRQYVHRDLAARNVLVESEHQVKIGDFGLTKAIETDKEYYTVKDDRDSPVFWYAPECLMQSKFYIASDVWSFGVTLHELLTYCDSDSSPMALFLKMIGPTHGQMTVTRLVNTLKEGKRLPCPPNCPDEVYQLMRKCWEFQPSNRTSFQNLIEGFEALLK

SMILES	JAK 1 (pKi) [1]	Tall-1 (pIC50) [2, 4]	JAK 3 (pKi) [3]	JAK3 (pKi)-JAK1 (pKi) [3, 5]	Ki [1]	IC50 [2, 6]	Ki [3]	JAK3 (pKi)-JAK1 (pKi) [3, 7]	IC50 [2, 8]	Tall-1 (pIC50) [2, 9]
CN(C)C/C=C/C(=O)N1CC(CN(C)c2nc(-c3ccc(O)cc3)cc3[nH]ncc23)C1 [Compound 4-8]	E (a pKi value of 7 or below (Ki of 100 nM or above))	B (a pIC50 value between 6.7 (included) and 7.5 (IC50 between 200 nM and 32 nM))	B (a pKi value between 9 and 10 (Ki between 1 nM and 0.1 nM))	B (a value of 2.3 to 3)	–	–	–	–	–	–
C=CC(=O)N1CCC(C(=O)Nc2cc(-c3ccc(O)cc3)cc3[nH]ncc23)CC1 [Compound 12-59]	–	–	–	–	> 100 nM	31.6 to 200 nM	< 0.1 nM	A (a value of 3 or above)	–	–
O=C(/C=C/CN1CCOCC1)N1CC(COc2cc(-c3ccc(O)cc3)cc3[nH]ncc23)C1 [Compound 3-129]	–	–	–	A (a value of 3 or above)	> 100 nM	–	0.1 to 1 nM	–	200 to 1000 nM	–
C=CC(=O)N1CC(C(C)(C)Oc2cc(-c3ccc(O)cc3)cc3[nH]ncc23)C1 [Compound 3-25]	E (a pKi value of 7 or below (Ki of 100 nM or above))	B (a pIC50 value between 6.7 (included) and 7.5 (IC50 between 200 nM and 32 nM))	C (a pKi value between 8 and 9 (Ki between 10 nM and 1 nM))	B (a value of 2.3 to 3)	–	–	–	–	–	–
CN(C)C/C=C/C(=O)N1CC(Oc2cc(-c3ccc(O)cc3)cc3[nH]ncc23)(C2CC2)C1 [Compound 5-13]	E (a pKi value of 7 or below (Ki of 100 nM or above))	B (a pIC50 value between 6.7 (included) and 7.5 (IC50 between 200 nM and 32 nM))	B (a pKi value between 9 and 10 (Ki between 1 nM and 0.1 nM))	B (a value of 2.3 to 3)	–	–	–	–	–	–
C=CC(=O)N1CCC(COc2nc(-c3ccc(O)cc3)cc3[nH]ncc23)CC1 [Compound 14-6]	D (a pKi value between 7 and 8 (Ki between 100 nM and 10 nM))	–	A (a pKi value≥10 (Ki≤0.1 nM))	–	–	–	–	B (a value of 2.3 to 3)	–	A (a pIC50 value≥7.5 (IC50≤32 nM))
CN(C)C/C=C/C(=O)N1CC[C@H](Oc2cc(-c3ccc(O)c(Cl)c3)cc3[nH]ncc23)C1 [Compound 1-3]	–	–	–	A (a value of 3 or above)	> 100 nM	–	0.1 to 1 nM	–	31.6 to 200 nM	–
CN(C)CC=CC(=O)N1C2CCC1CC(Oc1nc(-c3ccc(O)c(Cl)c3)cc3[nH]ncc13)C2 (centres unmarked) [Compound 9-8]	D (a pKi value between 7 and 8 (Ki between 100 nM and 10 nM))	–	B (a pKi value between 9 and 10 (Ki between 1 nM and 0.1 nM))	–	–	–	–	C (a value of 1.8 to 2.3)	–	C (a pIC50 value between 6 and 6.7 (IC50 between 1 μM and 200 nM))
O=C(/C=C/CN1CCC1)N1CC(COc2cc(-c3ccc(O)cc3)cc3[nH]ncc23)C1 [Compound 3-123]	–	–	–	A (a value of 3 or above)	> 100 nM	–	< 0.1 nM	–	200 to 1000 nM	–
C=CC(=O)N1CC[C@H](Oc2nc(-c3ccc(O)cc3)nc3[nH]nc(C(F)F)c23)C1 [Compound 1-25]	–	–	–	A (a value of 3 or above)	> 100 nM	–	0.1 to 1 nM	–	31.6 to 200 nM	–
C=CC(=O)N1CC[C@H](Oc2nc(-c3ccc(O)c(Cl)c3)cc3[nH]nc(C)c23)C1 [Compound 1-35]	–	–	–	A (a value of 3 or above)	10 to 100 nM	–	< 0.1 nM	–	< 31.6 nM	–
O=C(/C=C/CN1CCCC1)N1CC(COc2cc(-c3ccc(O)cc3)cc3[nH]ncc23)C1 [Compound 3-124]	–	–	–	A (a value of 3 or above)	> 100 nM	–	0.1 to 1 nM	–	31.6 to 200 nM	–
C=CC(=O)N1CC[C@H](Oc2nc(-c3ccc(O)c(Cl)c3)nc3[nH]nc(C)c23)C1 [Compound 1-37]	–	–	–	A (a value of 3 or above)	> 100 nM	–	0.1 to 1 nM	–	200 to 1000 nM	–
C=CC(=O)N1CC[C@H](Oc2cc(-c3ccc(O)c(F)c3)cc3[nH]nc(C)c23)C1 [Compound 1-23]	–	–	–	B (a value of 2.3 to 3)	10 to 100 nM	–	0.1 to 1 nM	–	< 31.6 nM	–
C=CC(=O)N1CCC[C@H](Oc2nc(-c3ccc(O)c(Cl)c3)cc3[nH]ncc23)C1 [Compound 8-10]	D (a pKi value between 7 and 8 (Ki between 100 nM and 10 nM))	–	A (a pKi value≥10 (Ki≤0.1 nM))	–	–	–	–	A (a value of 3 or above)	–	A (a pIC50 value≥7.5 (IC50≤32 nM))
CN(C)C/C=C/C(=O)N1CC[C@H]1COc1cc(-c2ccc(O)cc2)cc2[nH]ncc12 [Compound 12-24]	–	–	–	–	> 100 nM	200 to 1000 nM	0.1 to 1 nM	A (a value of 3 or above)	–	–
C=CC(=O)N1CCC(Oc2nc(-c3ccc(O)c(Cl)c3)nc3[nH]ncc23)CC1 [Compound 6-22]	–	–	–	–	> 100 nM	200 to 1000 nM	0.1 to 1 nM	A (a value of 3 or above)	–	–
